# Key:
# Human recombinant CYP2J2 [1] = target: T1, Human recombinant CYP2J2 (Homo sapiens, UniProt P51589); assay: Inhibition activity of Piperine derivatives towards CYP2J2 (BnXPI probe, IC50); format: biochemical; details: for IC50: CYP2J2 3.75 pmol/mL, BnXPI 4 μM, 30 min, triplicate, mean ± SD, read-out: Inhibitory activity (IC50) CYP2J2; for increase of inhibition activity compared with Piperine: IC50 versus Piperine
# T1 construct: purchased Cypex (Scotland, UK)
# T1 sequence (P51589 1-502): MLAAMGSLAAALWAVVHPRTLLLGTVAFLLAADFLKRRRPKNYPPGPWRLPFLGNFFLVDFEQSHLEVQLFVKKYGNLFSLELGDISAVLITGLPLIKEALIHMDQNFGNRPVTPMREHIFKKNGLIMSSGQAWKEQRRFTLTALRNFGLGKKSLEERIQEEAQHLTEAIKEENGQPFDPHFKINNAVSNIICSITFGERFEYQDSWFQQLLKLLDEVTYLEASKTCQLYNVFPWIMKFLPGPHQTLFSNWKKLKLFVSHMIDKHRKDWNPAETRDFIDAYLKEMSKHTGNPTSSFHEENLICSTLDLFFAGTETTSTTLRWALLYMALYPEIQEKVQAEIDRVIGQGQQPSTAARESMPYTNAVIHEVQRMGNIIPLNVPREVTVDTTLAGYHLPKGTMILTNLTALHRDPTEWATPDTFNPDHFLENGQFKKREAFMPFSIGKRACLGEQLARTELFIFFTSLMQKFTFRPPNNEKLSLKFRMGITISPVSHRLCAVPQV
# Protocol: In our previous study, BnXPI was developed to be the first selective fluorescent probe for CYP2J2[24]. Thus, with the help of the fast and sensitive advantages of fluorescence technology, the potential inhibitory effect of 108 herbal medicines (Table S1) towards CYP2J2 was screened. In brief, in the standard incubation system (100 mM phosphoric acid buffer, pH 7.4, NADPH generate system, BnXPI and extract of herbal medicines), BnXPI was set at 4 μM, and the concentration of CYP2J2 was 0.01 nmol/mL, after the pre-incubation of BnXPI and herbal medicines (final concentration was 20 μg/mL) for 3 min, NADP^+ was added to initiate the reaction. After additional 30 min (mins) incubation, 100 μL ice acetonitrile was added to terminate the reaction and followed a 20000 g centrifugation at 4 °C, the supernatant was collected and assay on a Synergy H1 Microplate Reader (Bio-Tek). The blank solvent replaces the extract of herbal medicines was set as the control group. According to the screening method mentioned above, various concentration of Piperine derivatives were added into our standard incubation system and incubated with CYP2J2, probe BnXPI for 30 min. The concentration of CYP2J2 was set at 3.75 pmol/mL, the concentration of BnXPI was 4 μM. The control group was added blank solvent instead of the inhibitors.
# Human recombinant CYP2J2 [2] = target: T1, Human recombinant CYP2J2; assay: Inhibition kinetic study towards CYP2J2 (Lineweaver-Burk and Dixon plots); format: biochemical; details: for Ki: BnXPI 0–8 μM; for inhibition type towards CYP2J2: intersection point in Lineweaver–Burk plot
# Protocol: In order to clarify the inhibition type of compound 9a, 9k, and 9l towards CYP2J2, the inhibition kinetics were also performed. Briefly, the inhibition activity of target compounds towards the metabolism kinetic of BnPXI (0–8 μM) mediated by CYP2J2 was determinated under the different concentrations of inhibitors. At last, Lineweaver–Burk and Dixon plots were used to fit the data as previously described[25]^,[26]. The inhibition kinetic type was evaluated by determining the intersection point in the Lineweaver–Burk plots. […] (1) v=Vmax/1+Km/[S](1+[I]/Ki) (2) v=Vmax/(1+Km/[S])(1+[I]/Ki) (3) v=Vmax/(1+Km/[S]+[I]/Ki) (4) v=Vmax/Km/[S](1+[I]/Ki)+(1+[I]/αKi)
SMILES,IC50 (Human recombinant CYP2J2 [1]) [nM],Ki (Human recombinant CYP2J2 [2]) [nM],increase of inhibition activity compared with Piperine (Human recombinant CYP2J2 [1]),inhibition type towards CYP2J2 (Human recombinant CYP2J2 [2])
"O=C(/C=C/C=C/c1ccc2c(c1)OCO2)N1CCCCC1 [9a, (2E,4E)-5-(benzo[d][1,3]dioxol-5-yl)-1-(piperidin-1-yl)penta-2,4-dien-1-one]",440 ± 50,500,–,–
"CC(C)CN(CC(C)C)C(=O)/C=C/C=C/c1ccc2c(c1)OCO2 [9k, (2E,4E)-5-(benzo[d][1,3]dioxol-5-yl)-N,N-diisobutylpenta-2,4-dienamide]",40 ± 8,110,about 10 folds,competitive inhibition model
"CN(C)CCNC(=O)/C=C/C=C/c1ccc2c(c1)OCO2 [9j, (2E,4E)-5-(benzo[d][1,3]dioxol-5-yl)-N-(2-(dimethylamino)ethyl)penta-2,4-dienamide]",11800 ± 1470,–,–,–
"O=C(/C=C/C=C/c1ccc2c(c1)OCO2)N1CCOCC1 [9e, (2E,4E)-5-(benzo[d][1,3]dioxol-5-yl)-1-morpholinopenta-2,4-dien-1-one]",12000 ± 1350,–,–,–
"O=C(/C=C/C=C/c1ccc2c(c1)OCO2)NC1CC1 [9b, (2E,4E)-5-(benzo[d][1,3]dioxol-5-yl)-N-cyclopropylpenta-2,4-dienamide]",4720 ± 730,–,–,–
"O=C(/C=C/C=C/c1ccc2c(c1)OCO2)N1CCCC1 [9c, (2E,4E)-5-(benzo[d][1,3]dioxol-5-yl)-1-(pyrrolidin-1-yl)penta-2,4-dien-1-one]",1580 ± 220,–,–,–
"O=C(/C=C/C=C/c1ccc2c(c1)OCO2)N1CCS(=O)(=O)CC1 [9i, (2E,4E)-5-(benzo[d][1,3]dioxol-5-yl)-1–(1,1-dioxidothiomorpholino)penta-2,4-dien-1-one]",1240 ± 450,–,–,–
"C[C@@H]1COCCN1C(=O)/C=C/C=C/c1ccc2c(c1)OCO2 [9f, (2E,4E)-5-(benzo[d][1,3]dioxol-5-yl)-1-((R)-3-methylmorpholino)penta-2,4-dien-1-one]",4660 ± 560,–,–,–
"O=C(/C=C/C=C/c1ccc2c(c1)OCO2)N1CCSCC1 [9h, (2E,4E)-5-(benzo[d][1,3]dioxol-5-yl)-1-thiomorpholinopenta-2,4-dien-1-one]",750 ± 80,–,–,–
"O=C(/C=C/C=C/c1ccc2c(c1)OCO2)NCc1ccc(F)cc1 [9l, (2E,4E)-5-(benzo[d][1,3]dioxol-5-yl)-N-(4-fluorobenzyl)penta-2,4-dienamide]",50 ± 5,74,about 10 folds,competitive inhibition model
"O=C(/C=C/C=C/c1ccc2c(c1)OCO2)NC12CC3CC(CC(C3)C1)C2 [9d, (2E,4E)-N-((3s,5s,7s)-adamantan-1-yl)-5-(benzo[d][1,3]dioxol-5-yl)penta-2,4-dienamide]",9330 ± 1060,–,–,–
"C[C@H]1COCCN1C(=O)/C=C/C=C/c1ccc2c(c1)OCO2 [9g, (2E,4E)-5-(benzo[d][1,3]dioxol-5-yl)-1-((S)-3-methylmorpholino)penta-2,4-dien-1-one]",2250 ± 560,–,–,–

# From PMC7946002, “The development of novel cytochrome P450 2J2 (CYP2J2) inhibitor and the underlying interaction between inhibitor and CYP2J2” (Journal of Enzyme Inhibition and Medicinal Chemistry, 2021)
